Laboratory results from patent US20260234173A1, “STRUCTURED MOLECULAR VECTORS FOR ANTI-INFLAMMATORY COMPOUNDS AND USES THEREOF” (Universite Claude Bernard Lyon 1, priority 2019, published 2026).

Tested on: CA1 pyramidal neurons in hippocampal slices from rats subjected to Pilo-SE
Assay: Hippocampal LTP in slices from Pilo-SE rats, compound perfused in the bath (ex vivo)
Type: cell-based, rat
Details: slices 1-2 weeks post Pilo-SE
Protocol: In this experiment we used male Sprague-Dawley rats (ENVIGO, Netherlands). Pups were received at 14 day-old (postnatal day 14 (P14)) with their foster mother, and were maintained in groups of 10 in plastic cages (405 mm×255 mm×197 mm) with free access to food and water. All animal procedures are in accordance with the guidelines of the Animal Care and Use Committee of the University Claude Bernard Lyon 1.
All injected solutions were prepared in sterile saline (0.9% w/v). At weaning (postnatal day 20 (P20)), Sprague-Dawley male rat pups were first injected i.p. with lithium chloride (127 mg/Kg; Sigma-Aldrich), to decrease the dose of pilocarpine needed to trigger Status Epilepticus (SE). Scopolamine methylnitrate (1 mg/Kg; Sigma-Aldrich) was injected s.c. 18 h later, to alleviate peripheral cholinergic adverse side effects. Pilocarpine hydrochloride (25 mg/Kg; Sigma-Aldrich) was injected i.p. 30 min later, to induce SE. […] The rats were placed on a heated pad, under continuous observation, until they recovered from sedation. Following recovery, the rats were returned to the nursing mother until P23. Control rats only received saline injections. All rats were then housed in groups of 10 and weighed daily, during the 5 following days, to control for food intake, and then twice weekly until the end of experiment (three weeks post SE).
At P28-38, Sprague-Dawley rats were anesthetized with isoflurane, the forebrain was removed and placed in ice cold standard artificial cerebrospinal fluid (ACSF), consisting of (in mM): 124 NaCl, 5 KCl, 1.25 Na2HPO4, 2 MgSO4, 2 CaCl2), 26 NaHCO3, supplemented with 10 D-glucose, and bubbled with 95% O2 and 5% CO2. Hippocampal transverse slices were cut into 350 μm thick sections, using a vibratome (Leica VT1000S), and incubated in ACSF at room temperature for at least 1 h, before the transfer to the recording chamber. The ACSF used for perfusion was supplemented with picrotoxin (100 μM; Sigma-Aldrich), to block GABA-A receptors and therefore to facilitate the induction of NMDA receptors-dependent Long-Term Potentiation (LTP). CA1 pyramidal cells were visualized with a Zeiss Axioskop 2, equipped with a X40 objective, using infrared video microscopy and differential interference contrast optics. Whole-cell recordings from pyramidal neurons in the CA1 layer were obtained with patch electrodes, which were filled with a solution containing (in mM): 120 potassium gluconate, 20 KCl, 0.2 EGTA, 2 MgCl2, 10 HEPES, 4 Na2ATP, 0.3 Tris-GTP and 14 mM phosphocreatine (pH 7.3, adjusted with KOH). Drugs were applied in the bath of the hippocampal slices. Electrode resistances ranged from 3-5 MΩ. Series resistance was continually monitored, and experiments were discarded if it changed by >20%.
Capillary glass pipettes filled with ACSF and connected to an Iso-Flex stimulus isolation unit (A.M.P.I.) were placed in stratum radiatum, to evoke excitatory postsynaptic potentials (EPSPs) in CA1 pyramidal neurons. Cells were held at −70 mV to record EPSPs, and the stimulation strength was set to evoke EPSPs between 5-8 mV. LTP was induced by the theta burst pairing (TBP) protocol, which consisted of EPSPs paired with single back-propagating action potentials (b-APs), timed so that the b-AP (~15 ms delay) occurred at the peak of the EPSPs, as measured in the soma. A single burst contained five pairs delivered at 100 Hz and ten bursts were delivered at 5 Hz per sweep. Three sweeps were delivered at 10 s intervals for a total of 30 bursts (150 b-AP-EPSP pairs). […]

## CCC=CCC=CCC=CCC=CCC=CCC=CCCC(=O)NCCP(=O)(O)O [synaptamide phosphonate]
Bath application 100 nM
  LTP magnitude (EPSP amplitude, % of baseline): 132.2±5.01%
Bath application 400 nM
  LTP magnitude (EPSP amplitude, % of baseline): 159.9±10.7%
